Test results taken from patent US20060183794A1, “Drug composition containing nf-kb inhibitor” (priority 2002, published 2006).

What was measured:
[1] = system: human breast cancer cell line MCF-7; assay: In vitro proliferation of MCF-7 (trypan blue cell count); type: cell-based
Protocol: The human breast cancer cell line MCF-7 (NF-κB non-constitutively activated tumor) was incubated in 24, 48, and 72 hours in the presence of 10 and 50 μg/ml DHMEQ, and the proliferation-suppressive effect was examined.
MCF-7 was plated in 6 well plates at 1×10^5/well. The next day, the culture media were changed into those (5 ml) containing DHMEQ at 10 and 50 μg/ml and into the control medium (5 ml) containing only DMSO, which is used for dissolution of DHMEQ, in equal amount to those containing each concentration of DHMEQ. The assay was performed in three wells per each group. Immediately after the change, cells were incubated for 24, 48, and 72 hours. Subsequently, the cells were scraped with trypsin+EDTA. The number of cells was counted with trypan blue and averages as well as standard deviations were calculated. Data for each group were obtained and plotted in comparison with the control cells treated with DMSO only.

[2] = system: ATL cell line MT-2 in SCID mice; assay: Survival of SCID mice intraperitoneally inoculated with ATL cell line MT-2; type: in vivo; details: for mice survived: p<0.05
Protocol: First, five-week-old male SCID mice (CB17-scid/scid; SLC Japan, Inc (Shizuoka, Japan)) were treated for 3 to 5 days with 1 mg of IL-2 receptor antibody (TM-β1; J. Immunol. 147: 2222-2228, 1991), and intraperitoneally inoculated with the ATL cell line MT-2 (3 to 4×10^7 cells). Subsequently, the mice were intraperitoneally given 4 mg/kg bw or 12 mg/kg bw DHMEQ dissolved in 5% carboxymethyl cellulose (CMC; Sigma) solution three times a week for one month, and their survival probability and status were observed. […] The survival curve was calculated by the Kaplan-Mayer method, and the statistically significant difference was determined by the Cox-Mantel test.

[3] = biological target: T1, p65 subunit of NF-κB (Homo sapiens, UniProt Q04206); assay: Confocal microscopy of p65 distribution in ATL cell lines; type: cell-based; details: MT-1 and TL-Om1; 10 μg/ml DHM2EQ, 24 hours
T1 construct: endogenous in cells; host or cells: ATL cell lines MT-1 and TL-Om1
T1 sequence (Q04206 whole entry): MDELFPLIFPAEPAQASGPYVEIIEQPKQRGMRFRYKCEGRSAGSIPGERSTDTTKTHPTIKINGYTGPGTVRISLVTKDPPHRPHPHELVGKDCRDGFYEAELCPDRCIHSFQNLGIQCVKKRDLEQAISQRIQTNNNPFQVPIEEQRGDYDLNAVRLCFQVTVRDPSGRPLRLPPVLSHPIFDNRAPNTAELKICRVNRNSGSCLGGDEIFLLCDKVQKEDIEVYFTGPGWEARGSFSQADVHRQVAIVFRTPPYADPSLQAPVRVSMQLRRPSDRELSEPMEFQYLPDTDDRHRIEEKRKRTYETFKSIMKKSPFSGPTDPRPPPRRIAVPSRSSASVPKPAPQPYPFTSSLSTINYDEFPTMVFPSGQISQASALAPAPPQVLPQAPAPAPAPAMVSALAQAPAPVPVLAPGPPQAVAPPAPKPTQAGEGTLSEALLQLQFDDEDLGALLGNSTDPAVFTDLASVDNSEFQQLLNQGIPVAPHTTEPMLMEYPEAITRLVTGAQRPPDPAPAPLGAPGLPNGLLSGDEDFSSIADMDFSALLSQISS
Protocol: It is thought that DHM2EQ inhibits nuclear translocation of the p65 subunit of NF-κB. The ATL cell lines (MT-1 and TL-Om1) were treated with 10 μg/ml DHM2EQ for 24 hours and distribution of p65 was examined with a confocal microscope, using fluorescence-labeled anti-p65 antibody. The cell lines not treated with DHM2EQ were also examined in the same manner. In the figure, “−” and “+” indicate the results of DHM2EQ untreatment and DHM2EQ treatment, respectively.

[4] = system: MM cell lines, KMM1, RPMI8226, and U266; assay: MTT assay, proliferation of multiple myeloma cell lines; type: cell-based
Protocol: Cells from the ATL cell lines (MT-1 and TL-Om1) and a control cell line (K562) were plated in 96-well plates at 1×10^5 cells/well and DHM2EQ was added at the desired final concentrations (2, 5, and 10 μg/ml). Cells to which the solvent DMSO had been added in equal volume (0 μg/ml) were used as […] incubation for 72 hours, cell viability was judged by the MTT assay. Relative MTT values were obtained as the ratio of the MMT values of DHM2EQ-treated cells to those of DHM2EQ-untreated cells, i.e., (MTT values of DHM2EQ-treated cells/MTT values of DHM2EQ-untreated cells)×100(%).
DHM2EQ was added to the ATL cell lines (MT-1 and TL-Om1) and a control cell line (K562) at a final concentration of 10 μg/ml and the cells were incubated for 12, 24, 48, and 72 hours. The proliferation-inhibitory effect was examined by the MTT assay. Cells to which the solvent DMSO had been added in equal volume were used as controls. Relative MTT values were obtained in the same manner as the aforementioned (1).
To investigate the influence of the DHMEQ concentrations on inhibition of cell proliferation, the cell viability was judged by using the MM cell lines, KMM1, RPMI8226, and U266 in the same method as in Example 5-(1). […]

[5] = system: MM cells (MM1, MM2, and MM3) of multiple myeloma patients; assay: MTT assay, MM cells from patients' bone marrow; type: cell-based, human; details: 10 μg/ml, 48 hours
Protocol: Next, to investigate the inhibitory effect of DHMEQ on proliferation of cells of multiple myeloma (MM) patients, MM cells (MM1, MM2, and MM3) were isolated from patients' bone marrow, incubated for 48 hours at the DHMEQ concentration of 10 μg/ml, and the proliferation-inhibitory effect was examined by the MTT assay. Peripheral blood mononuclear cells (PBMC) isolated from normal peripheral blood were used as control cells. In the figure, the vertical axis indicates the relative values of the MTT values of treated cells versus untreated cells, i.e., (DHMEQ-treated/untreated)×100%.

[6] = biological target: NF-κB (Homo sapiens, UniProt P19838+Q04206); assay: p6kb-Luc luciferase reporter assay of NF-κB activity in JCA-1 cells; type: cell-based; design: endogenous in cells; details: 2.5, 5, 10, 20, 40 μg/ml DHMEQ, 8 hours
Sequence of NF-κB (Q04206 whole entry): as above
Sequence of NF-κB (P19838 1-433 limits assumed): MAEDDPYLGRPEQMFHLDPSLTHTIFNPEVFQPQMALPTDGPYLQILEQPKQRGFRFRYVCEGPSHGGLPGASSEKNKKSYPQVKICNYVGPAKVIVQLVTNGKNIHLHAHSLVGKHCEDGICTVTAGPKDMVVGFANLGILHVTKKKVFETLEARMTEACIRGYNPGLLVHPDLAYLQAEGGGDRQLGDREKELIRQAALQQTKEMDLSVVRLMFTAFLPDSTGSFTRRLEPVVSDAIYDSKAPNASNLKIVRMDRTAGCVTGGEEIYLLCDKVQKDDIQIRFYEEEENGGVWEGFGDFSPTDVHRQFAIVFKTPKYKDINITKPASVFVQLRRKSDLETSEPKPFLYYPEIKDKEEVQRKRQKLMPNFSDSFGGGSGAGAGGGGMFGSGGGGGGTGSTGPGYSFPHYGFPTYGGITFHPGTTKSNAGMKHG
Protocol: To measure the inhibitory effect of DHMEQ on activity of NF-κB, the activity of NF-κB on DHMEQ at various concentrations was measured using transcriptional activity of NF-κB as an index. As the reporter, the vector construct (p6kb-Luc), containing a luciferase gene as the reporter in the downstream of the promoter containing six tandem copies of the NF-κB binding sequence, was used. This reporter plasmid was transfected into JCA-1 cells using GenePOETER™ (Gene Therapy Systems). Fourteen hours after the transfection, 2.5, 5, 10, 20, and 40 μg/ml DHMEQ was added to the cell medium, followed by further incubation for 8 hours. Subsequently, cells were recovered and luciferase activity was measured. […] Each luciferase activity was measured and the absolute value was presented by standardization. All experiments were conducted independently three times, producing averages and standard deviations.

[7] = system: human pancreatic cancer cell line Colo357; assay: Annexin-V/PI flow cytometry apoptosis assay, Colo357 with irradiation; type: cell-based
Protocol: Next, the apoptosis-enhancing effect of DHMEQ on irradiated tumor cells was investigated. The human pancreatic cancer cell line Colo357 given 10 μg/ml DHMEQ for six hours, the human pancreatic cancer cell line Colo357 irradiated with 20 Gy radiation and then incubated for 6 hours, and the human pancreatic cancer cell line Colo357 given 10 μg/ml DHMEQ for six hours immediately after irradiation with 20 Gy radiation were subjected to Annexin-V/propidium iodide (PI) double staining. The apoptotic cells (lower right) were measured by flow cytometry and the ratio was calculated. […] On the other hand, in the cells to which DHMEQ was administered after irradiation with 20 Gy radiation, the apoptosis-inducing ability is enhanced three-fold, as compared with the cells only irradiated with 20 Gy radiation

O=C(NC1=CC(=O)C2OC2C1O)c1ccccc1O (centres unmarked) [DHMEQ, 5,6-epoxy-4-hydroxy-3-salicyloylamino-2-cyclohexenone]
cells survived compared with the control ([1]; 10 μg/ml, 24 hours): 39% | cells survived compared with the control ([1]; 10 μg/ml, 48 hours): 25% | cells survived compared with the control ([1]; 10 μg/ml, 72 hours): 17% | cells survived compared with the control ([1]; 50 μ/ml, in and after 24 hours): no cells were observed to survive | mice survived ([2]; 4 mg/kg i.p. three times a week for one month, about 200 days, control all 5 dead): 4 out of 6 | mice survived ([2]; 12 mg/kg i.p. three times a week for one month, about 30 days, control 4 out of 5 dead): 5 out of 6 | toxicity, anomalies in body weights etc. ([2]; SCID mice, up to three volumes of 4 mg/kg): toxicity was not noted | nuclear translocation of p65 [3]: inhibited | cell proliferation, concentration dependence (MTT) [4]: suppressed in proportion to the DHMEQ concentrations | cell proliferation, time course (MTT) [4]: suppressed in proportion to the DHMEQ treatment time | proliferation of MM cells from patients (MTT) [5]: proliferation was suppressed | NF-κB activity (luciferase) in JCA-1 cells [6]: concentration-dependently inhibits | apoptosis-inducing ability versus irradiation only ([7]; 10 μg/ml six hours after 20 Gy radiation): three-fold | apoptosis induction by DHMEQ alone ([7]; 10 μg/ml, six hours): apoptosis was not induced
